Test results reported in patent US10696693B2, “Fused imidazole derivatives as TGF-beta inhibitors” (Rigel Pharmaceuticals, Inc., priority 2014, dated 2020).

Assays:
GDF8 = assay: AlphaScreen SureFire p-SMAD3 (Ser423/425) assay, GDF8-stimulated cells; format: cell-based; details: Mus musculus, MPC-11; p-SMAD3 (Ser423/425) AlphaScreen in cell lysate; MPC11; GDF8 stimulation; read-out: GDF8: inhibition of GDF8 signaling, GDF pSMAD (MPC11)
Source text: (§1) The p-SMAD-3 (Ser423/425) SureFire® assay has been designed to measure the phosphorylation of endogenous cellular p-SMAD-3 (Ser423/425) in cell lysates and is a system for the screening of both modulators of receptor activation (e.g. agonists and antagonists) as well as agents acting intracellularly, such as small molecule inhibitors of upstream events. The assay will measure p-SMAD-3 (Ser423/425) activation by either cloned or endogenous receptors, and can be applied to primary cells.
(§2) 96-well Assay Protocol for 293FT and RMS13 adherent cells can be carried out manually or in high throughput with liquid handling robots.
(§3) The cells (80 μL of cells for 96 well plates) were plated in collagen coated tissue culture plates in RPMI or FreeStyle medium (Invitrogen) and incubated overnight. For manual analysis, 6 plates for GDF8, 6 plates for TGFβ, and optionally 6 plates for Alk5ca(ALK5 constitutively active) were used.
(§4) The compound dilution plates were prepared as follows: 12 μL of DMSO was transferred into first column of 96-well plate, and 16 μL of DMSO was transferred into columns 2-12 of the 96-well plate. 12 μL of compound solution was transferred into first column of the DMSO-containing 96-well plate. Three-fold dilution was performed up to column 10 of the DMSO-containing 96-well plate.
(§5) The plate containing cells were treated with compounds for about 10 minutes, and then ligand was added. GDF8 or TGFb was added to plates to stimulate. 293FL cells were stimulatedfor 90 minutes at 37° C.; and RMS13 cells were stimulated for 60 minutes at 37° C. The medium was then removed from the cells, and 1× Lysis Buffer (about 25 μL) was added and the plate was gently agitated on plate shaker for 5-10 minutes.
(§6) The lysate (5 μL) was then placed into 384-well shallow plates avoiding the generation of bubbles. To this, the Reaction Buffer+Activation Buffer+AlphaScreen® Acceptor beadsmixture (5 μL) was added. The plate was sealed with adhesive cover and shielded from light (e.g., with metal foil), and agitated gently on plate shaker for 2 hours at room temperature.
(§7) Dilution buffer+AlphaScreen® Donor beads (2 μL) was then added, and the plate was intubated on the plate shaker for an additional 1½ hours. After completion, the plate was read on Synergy-4 or Enspire plate reader, using AlphaScreen® pSMAD3® settings.
(§8) Representative results for inhibition of GDF8 (data=GDF pSMAD (MPC11) (μM)) and TGF-β (data=TGF-β pSMAD (MPC-11) (μM)) signaling are shown in Table 1(A=<0.05 μM, B=0.05−<0.1 μM, C=0.1−<1.0 μM, D=>1.0 μM): […]

TGF-β = assay: AlphaScreen SureFire p-SMAD3 (Ser423/425) assay, TGF-β-stimulated cells; format: cell-based; details: Mus musculus; p-SMAD3 (Ser423/425) AlphaScreen in cell lysate; MPC-11; TGF-β stimulation; read-out: TGF-β: inhibition of TGF-β signaling, TGF-β pSMAD (MPC-11)
Source text: as §1, §2, §3, §4, §5, §6, §7, §8

Row | Structure (SMILES) | IC50 (GDF8) | IC50 (TGF-β)
1 | Fc1cc(-c2nc3n(c2-c2ccc4nccn4c2)CCC3)c(F)cc1Cl [Compound 19, 6-(2-(4-chloro-2,5-difluorophenyl)-6,7-dihydro-5H-pyrrolo[1,2-a]imidazol-3-yl)imidazo[1,2-a]pyridine] | > 1 µM | > 1 µM
2 | CC(C)c1nnc2ccc(-c3c(-c4cc(F)c(Cl)cc4F)nc4n3CCC4)cn12 [Compound 20, 6-(2-(4-chloro-2,5-difluorophenyl)-6,7-dihydro-5H-pyrrolo[1,2-a]imidazol-3-yl)-3-isopropyl-[1,2,4]triazolo[4,3-a]pyridine] | > 1 µM | > 1 µM
3 | CC(C)c1nnc2ccc(-c3c(-c4cc(F)c(F)cc4F)nc4n3CCC4)cn12 [Compound 21, 3-isopropyl-6-(2-(2,4,5-trifluorophenyl)-6,7-dihydro-5H-pyrrolo[1,2-a]imidazol-3-yl)-[1,2,4]triazolo[4,3-a]pyridine] | > 1 µM | > 1 µM
4 | CC(C)c1nnc2ccc(-c3c(-c4cc(F)cc(F)c4F)nc4n3CCC4)cn12 [Compound 22, 3-isopropyl-6-(2-(2,3,5-trifluorophenyl)-6,7-dihydro-5H-pyrrolo[1,2-a]imidazol-3-yl)-[1,2,4]triazolo[4,3-a]pyridine] | > 1 µM | > 1 µM
5 | CC(C)c1nnc2ccc(-c3c(-c4ccc(F)c(F)c4F)nc4n3CCC4)cn12 [Compound 23, 3-isopropyl-6-(2-(2,3,4-trifluorophenyl)-6,7-dihydro-5H-pyrrolo[1,2-a]imidazol-3-yl)-[1,2,4]triazolo[4,3-a]pyridine] | > 1 µM | > 1 µM
6 | Cc1cc(-c2nc3n(c2-c2ccc4ncnn4c2)CCC3)cc(C)c1Cl [Compound 24, 6-(2-(4-chloro-3,5-dimethylphenyl)-6,7-dihydro-5H-pyrrolo[1,2-a]imidazol-3-yl)-[1,2,4]triazolo[1,5-a]pyridine] | > 1 µM | > 1 µM
7 | Cc1cc(-c2nc3n(c2-c2ccc4nccn4c2)CCC3)cc(C)c1Cl [Compound 25, 6-(2-(4-chloro-3,5-dimethylphenyl)-6,7-dihydro-5H-pyrrolo[1,2-a]imidazol-3-yl)imidazo[1,2-a]pyridine] | > 1 µM | > 1 µM
8 | Cc1ccc(-c2nc3n(c2-c2ccc4ncnn4c2)CCC3)c(F)c1F [Compound 26, 6-(2-(2,3-difluoro-4-methylphenyl)-6,7-dihydro-5H-pyrrolo[1,2-a]imidazol-3-yl)-[1,2,4]triazolo[1,5-a]pyridine] | > 1 µM | > 1 µM
9 | Cc1ccc(-c2nc3n(c2-c2ccc4nccn4c2)CCC3)c(F)c1F [Compound 27] | > 1 µM | > 1 µM
10 | Cc1cc(-c2nc3n(c2-c2ccc4ncnn4c2)CCC3)c(F)cc1Cl [Compound 28, 6-(2-(4-chloro-2-fluoro-5-methylphenyl)-6,7-dihydro-5H-pyrrolo[1,2-c]imidazol-3-yl)-[1,2,4]triazolo[1,5-c]pyridine] | > 1 µM | > 1 µM
11 | Cc1cc(-c2nc3n(c2-c2ccc4nccn4c2)CCC3)c(F)cc1Cl [Compound 29] | > 1 µM | > 1 µM
12 | COc1c(C)cc(-c2nc3n(c2-c2ccc4ncnn4c2)CCC3)cc1C [Compound 30, 6-(2-(4-methoxy-3,5-dimethylphenyl)-6,7-dihydro-5H-pyrrolo[1,2-a]imidazol-3-yl)-[1,2,4]triazolo[1,5-a]pyridine] | > 1 µM | > 1 µM
13 | COc1c(C)cc(-c2nc3n(c2-c2ccc4nccn4c2)CCC3)cc1C [Compound 31, 6-(2-(4-methoxy-3,5-dimethylphenyl)-6,7-dihydro-5H-pyrrolo[1,2-c]imidazol-3-yl)imidazo[1,2-c]pyridine] | > 1 µM | > 1 µM
14 | Cc1cc(F)c(F)cc1-c1nc2n(c1-c1ccc3nccn3c1)CCC2 [Compound 32] | 0.1 to 1 µM | > 1 µM
15 | Fc1cc(-c2nc3n(c2-c2ccc4nnc(C(F)(F)F)n4c2)CCC3)cc(F)c1F [Compound 33, 3-(trifluoromethyl)-6-(2-(3,4,5-trifluorophenyl)-6,7-dihydro-5H-pyrrolo[1,2-c]imidazol-3-yl)-[1,2,4]triazolo[4,3-c]pyridine] | > 1 µM | > 1 µM
16 | Fc1cc(F)c(-c2nc3n(c2-c2ccc4nnc(C(F)(F)F)n4c2)CCC3)cc1F [Compound 34, 3-(trifluoromethyl)-6-(2-(2,4,5-trifluorophenyl)-6,7-dihydro-5H-pyrrolo[1,2-c]imidazol-3-yl)-[1,2,4]triazolo[4,3-c]pyridine] | > 1 µM | > 1 µM
17 | Fc1ccc(-c2nc3n(c2-c2ccc4nnc(C(F)(F)F)n4c2)CCC3)c(F)c1F [Compound 35] | > 1 µM | > 1 µM
18 | Fc1ccc(-c2nc3n(c2-c2ccc4ncnn4c2)CCC3)cc1Cl [Compound 36, 6-(2-(3-chloro-4-fluorophenyl)-6,7-dihydro-5H-pyrrolo[1,2-a]imidazol-3-yl)-[1,2,4]triazolo[1,5-a]pyridine] | < 0.05 µM | 0.1 to 1 µM
19 | Fc1ccc(-c2nc3n(c2-c2ccc4nccn4c2)CCC3)cc1Cl [Compound 37] | 0.05 to 0.1 µM | 0.1 to 1 µM
20 | Cc1cc(-c2nc3n(c2-c2ccc4ncnn4c2)CCC3)c(F)cc1F [Compound 38, 6-(2-(2,4-difluoro-5-methylphenyl)-6,7-dihydro-5H-pyrrolo[1,2-a]imidazol-3-yl)-[1,2,4]triazolo[1,5-a]pyridine] | < 0.05 µM | < 0.05 µM
21 | Cc1cc(-c2nc3n(c2-c2ccc4nccn4c2)CCC3)c(F)cc1F [Compound 39, 6-(2-(2,4-difluoro-5-methylphenyl)-6,7-dihydro-5H-pyrrolo[1,2-a]imidazol-3-yl)imidazo[1,2-c]pyridine] | < 0.05 µM | 0.05 to 0.1 µM
22 | Cc1cc(-c2nc3n(c2-c2ccc4ncnn4c2)CCC3)cc(Cl)c1F [Compound 40, 6-(2-(3-chloro-4-fluoro-5-methylphenyl)-6,7-dihydro-5H-pyrrolo[1,2-c]imidazol-3-yl)-[1,2,4]triazolo[1,5-c]pyridine] | > 1 µM | > 1 µM
23 | Cc1cc(-c2nc3n(c2-c2ccc4nccn4c2)CCC3)cc(Cl)c1F [Compound 41, 6-(2-(3-chloro-4-fluoro-5-methylphenyl)-6,7-dihydro-5H-pyrrolo[1,2-c]imidazol-3-yl)imidazo[1,2-c]pyridine] | > 1 µM | > 1 µM
24 | Cc1cc(-c2nc3n(c2-c2ccc4ncnn4c2)CCC3)cc(C)c1F [Compound 42, 6-(2-(4-fluoro-3,5-dimethylphenyl)-6,7-dihydro-5H-pyrrolo[1,2-a]imidazol-3-yl)-[1,2,4]triazolo[1,5-a]pyridine] | > 1 µM | > 1 µM
25 | Cc1cc(-c2nc3n(c2-c2ccc4nccn4c2)CCC3)cc(C)c1F [Compound 43, 6-(2-(4-fluoro-3,5-dimethylphenyl)-6,7-dihydro-5H-pyrrolo[1,2-a]imidazol-3-yl)imidazo[1,2-c]pyridine] | > 1 µM | > 1 µM
26 | Cc1c(-c2nc3n(c2-c2ccc4ncnn4c2)CCC3)ccc(F)c1F [Compound 44, 6-(2-(3,4-difluoro-2-methylphenyl)-6,7-dihydro-5H-pyrrolo[1,2-a]imidazol-3-yl)-[1,2,4]triazolo[1,5-a]pyridine] | 0.1 to 1 µM | > 1 µM
27 | Cc1c(F)ccc(-c2nc3n(c2-c2ccc4ncnn4c2)CCC3)c1F [Compound 45, 6-(2-(2,4-difluoro-3-methylphenyl)-6,7-dihydro-5H-pyrrolo[1,2-a]imidazol-3-yl)-[1,2,4]triazolo[1,5-a]pyridine] | 0.1 to 1 µM | 0.1 to 1 µM
28 | Cc1c(F)ccc(-c2nc3n(c2-c2ccc4nccn4c2)CCC3)c1F [Compound 46, 6-(2-(2,4-difluoro-3-methylphenyl)-6,7-dihydro-5H-pyrrolo[1,2-a]imidazol-3-yl)imidazo[1,2-a]pyridine] | 0.1 to 1 µM | 0.1 to 1 µM
29 | Cc1cc(F)c(-c2nc3n(c2-c2ccc4ncnn4c2)CCC3)cc1F [Compound 47, 6-(2-(2,5-difluoro-4-methylphenyl)-6,7-dihydro-5H-pyrrolo[1,2-a]imidazol-3-yl)-[1,2,4]triazolo[1,5-a]pyridine] | > 1 µM | > 1 µM
